Experiments:
Type in all cases: cell-based
[1] = molecular target: T1, HDAC6 (α-tubulin acetylation) (Homo sapiens, UniProt Q9UBN7); assay: ELISA assay of acetylation of α-tubulin in HeLa cells; conditions: M-HeLa, 24 hours
T1 construct: endogenous in cells; host or cells: HeLa
T1 sequence (Q9UBN7 1-1215): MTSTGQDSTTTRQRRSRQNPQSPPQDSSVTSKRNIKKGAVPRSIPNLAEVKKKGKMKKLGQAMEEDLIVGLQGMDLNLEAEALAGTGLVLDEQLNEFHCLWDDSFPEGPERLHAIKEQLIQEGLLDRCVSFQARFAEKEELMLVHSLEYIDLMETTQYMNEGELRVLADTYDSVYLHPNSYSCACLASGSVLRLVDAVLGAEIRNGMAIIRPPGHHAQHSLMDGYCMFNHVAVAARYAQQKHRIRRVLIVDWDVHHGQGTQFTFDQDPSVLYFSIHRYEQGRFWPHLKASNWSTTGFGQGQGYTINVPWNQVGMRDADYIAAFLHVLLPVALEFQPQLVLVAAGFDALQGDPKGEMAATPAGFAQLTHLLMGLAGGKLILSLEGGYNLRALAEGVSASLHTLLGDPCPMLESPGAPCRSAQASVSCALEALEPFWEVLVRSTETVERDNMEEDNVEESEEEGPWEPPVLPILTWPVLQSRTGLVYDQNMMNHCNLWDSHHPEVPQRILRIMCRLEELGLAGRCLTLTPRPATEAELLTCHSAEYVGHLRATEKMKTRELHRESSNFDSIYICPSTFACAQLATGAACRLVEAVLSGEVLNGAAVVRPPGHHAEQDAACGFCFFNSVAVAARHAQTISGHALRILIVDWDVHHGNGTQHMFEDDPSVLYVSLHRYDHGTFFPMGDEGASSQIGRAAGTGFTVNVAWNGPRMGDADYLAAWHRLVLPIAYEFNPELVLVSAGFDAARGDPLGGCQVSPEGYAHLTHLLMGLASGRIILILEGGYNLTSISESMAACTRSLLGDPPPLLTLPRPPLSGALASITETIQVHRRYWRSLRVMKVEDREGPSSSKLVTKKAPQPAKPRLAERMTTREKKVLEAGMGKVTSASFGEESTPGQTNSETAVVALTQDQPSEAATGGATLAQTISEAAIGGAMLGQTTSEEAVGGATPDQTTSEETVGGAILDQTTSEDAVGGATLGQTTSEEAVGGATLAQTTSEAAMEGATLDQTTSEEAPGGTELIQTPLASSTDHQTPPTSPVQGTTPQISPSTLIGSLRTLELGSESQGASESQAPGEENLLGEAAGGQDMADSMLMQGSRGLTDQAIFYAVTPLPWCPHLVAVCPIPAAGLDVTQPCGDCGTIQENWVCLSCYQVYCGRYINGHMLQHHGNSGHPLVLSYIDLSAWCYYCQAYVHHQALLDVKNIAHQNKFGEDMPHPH
Protocol: Measurement of acetylation activity in cells on substrates:
ELISA assay of acetylation of α-tubulin
This assay is used to measure in vivo inhibition of HDAC6 in a cytoblot assay. Materials and Reagent: • 1. 24-well tissue culture • 2. DMEM Medium containing 10% FBS • 3. 96-well white plate • 4. HeLa cell line • 5. M-PER Mammalian Protein Extraction Reagent (Pierce) • 6. Bradford assay reagent • 7. Anti-acetyl-tubulin (Upstate) • 8. HRP-labeled anti-mouse IgG (Upstate) • 9. Coating Buffer: 15 mM Na2CO3, 35 mM NaHCO3 (pH 9.6) • 10. 10×PBS: 0.58 M Na2HPO4, 0.17M NaH2PO4, 0.68M NaCl (pH 7.4) • 11. Wash Buffer:1×PBS containing 0.05% Tween-20 (PBST) • 12. Blocking Buffer:10 mg/ml bocine serum albumin (BSA) in PBS • 13. Antibody Dilution Buffer: 5 mg/ml BSA in PBST • 14. Enhanced chemiluminescence (ECL) (Amersham)
Procedure for performing the assay in 96-well plate: • 1. HeLa cells were seeded at a density of 60000 cells/500 μl/well in 24-well plate and incubated at 37° C. for 24 hours. • 2. Compounds were added and incubated for 24 hours at 37° C. • 3. Culture medium was removed, then washes the cells twice with ice-cold PBS. • 4. Add 100 μl/well of Protein Extraction Reagent and gently shake the mixture for 5 minutes. • 5. Collect the lysate to a 96-well plate respectively. Determine the concentration of protein by Bradford assay. • 6. Coat the wells of a 96-well white plate with 100 μl/well of 2.5 μg whole cell protein in Coating Buffer by incubating overnight at 4° C. • 7. Discard the uncoated proteins and wash the coated wells three times with 200 μl/well of PBST. • 8. Block coated wells by incubating the plate with 200 μl/well of Blocking Buffer for 1 hour at 37° C. • 9. Wells were aspirated and washed three times with 200 μl/well of PBST. • 10. After aspirating, 50 μl/well of Antibody Dilution Buffer containing anti-Ac-tubulin (1:1000) were added to each well and incubated for 2 hour at 37° C. • 11. Wells were aspirated and washed three times with 200 μl/well of PBST. • 12. 50 μl/well of Antibody Dilution Buffer containing HRP-labeled anti-mouse IgG (1:2000) were added to each well and incubated for 2 hour at 37° C. • 13. Wells were aspirated and washed three times with 200 μl/well of PBST. • 14. Wells were washed three times with 200 μl/well of purified water. • 15. Add 50 μl/well of ECL mixture, then read the plates on the plate reader.

[2] = system: HDAC3 (gdf11 reporter gene); assay: HDAC subtype reporter gene assay, gdf11-promoter luciferase in HeLa cells; conditions: Homo sapiens, M-HeLa, read-out: % of SAHA Response for HDAC3 at 10 μM (gdf11 reporter gene), 24 hours
Protocol: (§1) Measurement of inhibition of HDAC subtypes activity in cells by reporter gene assay: HDAC subtype selectivity inhibition assay of tested compounds was carried out by several reporter gene assays experiments. Briefly, HeLa cells were seeded in 96-well plates the day before transfection to give a confluence of 50-80%. Cells were transfected with one of reporter gene plasmids containing a promoter sequences or response elements upstream of a luciferase gene construct using FuGene6 transfection reagent according to the manufacturer's instructions (Roche). The promoters or response elements including p21-promoter, gdf11-promoter, MEF-binding element (MEF2), Nur77-promoter were fused upstream to the luciferase gene reporter construct. For normalizing the transfection efficiency, a GFP expression plasmid was cotransfected. Cells were allowed to express protein for 24 hours followed by addition of individual compounds or the vehicle (DMSO). 24 hours later, the cells were harvested and the luciferase assays were performed using the luciferase assay kit according to the manufacturer's instructions (Promega). To normalize the data from the luciferase assays, GFP activity from transfected cells was measured in a microtiter-plate reading fluorimeter capable of excitation at a wavelength at 485 nm and detection of emitted light at 527 nm.

[3] = system: HDAC class I (p21 reporter gene); assay: HDAC subtype reporter gene assay, p21-promoter luciferase in HeLa cells; conditions: Homo sapiens, M-HeLa, read-out: % of SAHA Response for HDAC class I at 10 μM (p21 reporter gene), 24 hours
Protocol: as §1

| fold induction at 10 µM [1] | Compound | Emax at 10 µM [2] | Emax at 10 µM [3] |
| --- | --- | --- | --- |
| 2.39 | Nc1ccccc1NC(=O)CCCCNC(=O)c1cccc(/C=C2\C(=O)Nc3ccc(F)cc32)c1 [Example 49, 5-(3-((5-fluoro-2-oxoindolin-3-ylidene)methyl)benzamido)-N-(2-aminophenyl)pentanamide] | 11% | 18% |
| 1.97 | Nc1cc(F)ccc1NC(=O)CCCCNC(=O)c1cccc(/C=C2\C(=O)Nc3ccc(F)cc32)c1 [Example 50, 5-(3-((5-fluoro-2-oxoindolin-3-ylidene)methyl)benzamido)-N-(2-amino-4-fluorophenyl)pentanamide] | 4% | 7% |
| 1.97 | O=C(CCCCNC(=O)c1cccc(/C=C2\C(=O)Nc3ccc(F)cc32)c1)NO [Example 51, 5-(3-((5-fluoro-2-oxoindolin-3-ylidene)methyl)benzamido)-N-hydroxypentanamide] | 12% | 18% |
| 2.91 | Nc1ccccc1NC(=O)CCCCCCCNC(=O)c1cccc(/C=C2\C(=O)Nc3ccc(F)cc32)c1 [Example 54, 8-(3-((5-fluoro-2-oxoindolin-3-ylidene)methyl)benzamido)-N-(2-aminophenyl)octanamide] | 52% | 72% |
| 1.49 | Nc1cc(F)ccc1NC(=O)CCCCCCCNC(=O)c1cccc(/C=C2\C(=O)Nc3ccc(F)cc32)c1 [Example 55, 8-(3-((5-fluoro-2-oxoindolin-3-ylidene)methyl)benzamido)-N-(2-amino-4-fluorophenyl)octanamide] | 6% | 10% |
| 2.66 | O=C(CCCCCCCNC(=O)c1cccc(/C=C2\C(=O)Nc3ccc(F)cc32)c1)NO [Example 56, 8-(3-((5-fluoro-2-oxoindolin-3-ylidene)methyl)benzamido)-N-hydroxyoctanamide] | 56% | 65% |

The remaining lines, values behind:

| Compound | fold induction at 10 µM [1] | Emax at 10 µM [2] | Emax at 10 µM [3] |
| --- | --- | --- | --- |
| O=C(CCCCCNC(=O)c1ccc(/C=C2\C(=O)Nc3ccc(F)cc32)cc1)NO [Example 41, 6-(4-((5-fluoro-2-oxoindolin-3-ylidene)methyl)benzamido)-N-hydroxyhexanamide] | 1.47 | 11% | 13% |
| Nc1ccccc1NC(=O)CCCCCNC(=O)c1cccc(/C=C2\C(=O)Nc3ccc(F)cc32)c1 [Example 44, 6-(3-((5-fluoro-2-oxoindolin-3-ylidene)methyl)benzamido)-N-(2-aminophenyl)hexanamide] | 2.66 | 48% | 97% |
| Nc1cc(F)ccc1NC(=O)CCCCCNC(=O)c1cccc(/C=C2\C(=O)Nc3ccc(F)cc32)c1 [Example 45, 6-(3-((5-fluoro-2-oxoindolin-3-ylidene)methyl)benzamido)-N-(2-amino-4-fluorophenyl)hexanamide] | 1.64 | 12% | 19% |
| O=C(CCCCCNC(=O)c1cccc(/C=C2\C(=O)Nc3ccc(F)cc32)c1)NO [Example 46, 6-(3-((5-fluoro-2-oxoindolin-3-ylidene)methyl)benzamido)-N-hydroxyhexanamide] | 2.07 | 10% | 15% |

— US7863315B2, “2-indolinone derivatives as selective histone deacetylase inhibitors” (Shenzhen Chipscreen Biosciences, Ltd., priority 2008, dated 2011)
